Results: article PMC7112121 (Bioorganic Chemistry, 2019)
In brackets after ≈: the same amount, converted by molar mass.

How the values were obtained:
Vaccinia virus = assay: microbe, parasite or virus in culture; assay type: cell-based
[1] = test system: Vesicular stomatitis virus; assay type: cell-based
ACV^r-HSV-1 = assay: Antiviral CPE reduction assay, ACVr-HSV-1 in HEL cells; assay type: cell-based
CRFK feline kidney cells = conditions: MTS cell viability assay
Reovirus-1 = assay: Antiviral CPE reduction assay, Reovirus-1 in VERO cells; assay type: cell-based
Punto Toro virus = assay: Antiviral CPE reduction assay, Punto Toro virus in VERO cells; assay type: cell-based, Punta toro virus
Coxsackie B4 virus = assay: Antiviral CPE reduction assay, Coxsackie B4 virus in VERO cells; assay type: cell-based
Parainfluenza-3 virus = assay: Antiviral CPE reduction assay, Parainfluenza-3 virus in VERO cells; assay type: cell-based
HSV-2 = assay: Antiviral CPE reduction assay, HSV-2 in HEL cells; assay type: cell-based, Herpes simplex virus-2
HSV-1 = assay: Antiviral CPE reduction assay, HSV-1 in HEL cells; assay type: cell-based, Herpes simplex virus-1
[2] = test system: human embryonic lung (HEL) fibroblast cells; conditions: minimum cytotoxic concentration, microscopic inspection of cell morphology
[3] = test system: Mycobacterium tuberculosis H37Rv; conditions: for H37Rv Finding Activity: M. tuberculosis H37Rv, MABA in BACTEC 12B medium
Sindbis virus = assay: Antiviral CPE reduction assay, Sindbis virus in VERO cells; assay type: cell-based
VERO cells = conditions: minimum cytotoxic concentration, microscopic inspection of cell morphology
DNA virus = assay: Anti-DNA virus activity in HEL cells; assay type: cell-based
Feline coronavirus = assay: microbe, parasite or virus in culture; conditions: Alphacoronavirus 1, CRFK, read-out: Antiviral EC50 Feline coronavirus
in vitro [4] = conditions: cat
Feline herpesvirus = assay: Antiviral CPE reduction assay, Feline herpesvirus in CRFK cells; assay type: cell-based; conditions: Felid alphaherpesvirus 1, CRFK, read-out: Antiviral EC50 Feline herpesvirus
in vitro [5] = conditions: African green monkey
[6] = test system: Mycobacterium tuberculosis H37Rv; assay: microbe, parasite or virus in culture; conditions: read-out: H37Rv Finding MIC
[7] = HEL cells, CPE by microscopy, mean of two experiments
[8] = VERO cells, CPE by microscopy, mean of two experiments

For `O=C(Cc1csc2nc(-c3ccc(Br)cc3)cn12)NN=C1CCC(c2ccccc2)CC1` (stereo not drawn) [Compound 4c, 6-(4-Bromophenyl)–N^2-(4-phenylcyclohexylidene)imidazo[2,1-b]thiazole-3-acetohydrazide], the “Antiviral EC50 Vaccinia virus” value (Vaccinia virus) was 45 µg/mL, the “Antiviral EC50 Vesicular stomatitis virus” value [1] was over 100 µg/mL and the “Antiviral EC50 ACV^r-HSV-1” value (ACV^r-HSV-1; [7]) was at least 45 µg/mL. For the same molecule, the “Cytotoxicity CC50” value (CRFK feline kidney cells) was over 100 µg/mL, the “Antiviral EC50 Reovirus-1” value (Reovirus-1; [8]) was over 100 µg/mL and the “Antiviral EC50 Punto Toro virus” value (Punto Toro virus; [8]) was over 100 µg/mL. For the same molecule, the “Antiviral EC50 Coxsackie B4 virus” value (Coxsackie B4 virus; [8]) was over 100 µg/mL, the “Antiviral EC50 Parainfluenza-3 virus” value (Parainfluenza-3 virus; [8]) was over 100 µg/mL and the “Antiviral EC50 HSV-2” value (HSV-2; [7]) was at least 45 µg/mL. For the same molecule, the “Antiviral EC50 HSV-1” value (HSV-1; [7]) was 45 µg/mL, the “Cytotoxicity MCC” value [2] was at least 100 µg/mL and the “H37Rv Finding MIC” value [3] was over 100 µg/mL. For the same molecule, the “H37Rv Finding Activity” value [3] was “Weak Active”, the “Antiviral EC50 Sindbis virus” value (Sindbis virus; [8]) was over 100 µg/mL and the “Cytotoxicity MCC” value (VERO cells) was over 100 µg/mL. For the same molecule, the “antiviral EC50 values, anti-DNA virus activity” value (DNA virus) was “about 45 µg/mL”.

`O=C(Cc1csc2nc(-c3ccc(Br)cc3)cn12)NN1C(=O)CSC12CCC(c1ccc(O)cc1)CC2` (stereo not drawn) [Compound 5d, 2-[6-(4-Bromophenyl)imidazo[2,1-b]thiazole-3-yl]-N-(3-oxo-8-(4-hydroxyphenyl)-1-thia-4-azaspiro[4.5]dec-4-yl)acetamide] showed an EC50 (Feline coronavirus) of 4.8 µg/mL (≈ 8.03 µM), a selectivity ratio (in vitro [4]) of over 20 and an EC50 (Vaccinia virus; Orthopoxvirus vaccinia, HEL, read-out: Antiviral EC50 Vaccinia virus) of over 100 µg/mL. It also gave an EC50 (ACV^r-HSV-1; Human alphaherpesvirus 1, HEL, read-out: Antiviral EC50 ACV^r-HSV-1) of over 100 µg/mL, an EC50 (Reovirus-1; Vero, read-out: Antiviral EC50 Reovirus-1) of over 100 µg/mL and an EC50 (Punto Toro virus; Punta Toro virus, Vero, read-out: Antiviral EC50 Punto Toro virus) of over 100 µg/mL. For the same molecule, the EC50 (Feline herpesvirus) was 21 µg/mL (≈ 35.1 µM), the EC50 (Coxsackie B4 virus; Enterovirus B, B4, Vero, read-out: Antiviral EC50 Coxsackie B4 virus) was over 100 µg/mL and the EC50 (Parainfluenza-3 virus; Vero, read-out: Antiviral EC50 Parainfluenza-3 virus) was over 100 µg/mL. For the same molecule, the EC50 (HSV-2; Human alphaherpesvirus 2, HEL, read-out: Antiviral EC50 HSV-2) was over 100 µg/mL, the EC50 (HSV-1; Human alphaherpesvirus 1, HEL, read-out: Antiviral EC50 HSV-1) was over 100 µg/mL and the “Cytotoxicity MCC” value [2] was 20 µg/mL. The EC50 (Sindbis virus; Sindbis virus, Vero, read-out: Antiviral EC50 Sindbis virus) was over 100 µg/mL and the “Cytotoxicity MCC” value (VERO cells) was over 100 µg/mL.

With `CO[C@H]1/C=C/O[C@@]2(C)Oc3c(C)c(O)c4c(O)c(c(/C=N/N5CCN(C)CC5)c(O)c4c3C2=O)NC(=O)/C(C)=C\C=C\[C@H](C)[C@H](O)[C@@H](C)[C@@H](O)[C@@H](C)[C@H](OC(C)=O)[C@@H]1C` [Rifampin, reference compound] the CC50 (in vitro [5]) was over 100 µg/mL, the MIC [6] was 0.125 µg/mL (≈ 0.152 µM) and the “H37Rv Finding Activity” value [3] was “Active”.
